# Patent publication US6630499B1, “Control of arthropods in animals” (Aventis CropScience, S.A., priority 1998, dated 2003)
# How the values were obtained:
# Format in all cases: in vivo
# [1] = system: cat fleas (Ctenocephalides felis); assay: Control of cat fleas on treated dogs (Biological Examples 1-3); conditions: 10 mg/kg; for % Control 1 DPT (Fleas/Ticks): Fleas: dogs, 30 mg/mL in 1:1 dimethyl sulfoxide/corn oil, 1 day post-treatment, versus placebo group
# Procedure: (§1) All dogs were infested with cat fleas (Ctenocephalides felis) and with ticks (Rhipicephalus sanguineus) 1 day prior to administration of the compound. Cats were only infested with fleas. The initial flea and tick counts were performed 1 day after the administration of the compounds. At 7, 14, 21 and 28 days after treatment the dogs were re-infested with ticks and 8, 15, 22 and 29 days after treatment the dogs and cats were re-infested with fleas. At 1, 9, 16, 23 and 30 days after treatment the control of fleas and ticks in treated dogs and cats was determined versus a group of infested dogs and cats which received a placebo consisting of a 1:1 volume/volume solution of dimethyl sulfoxide and corn oil. To determine the efficacies of the compounds, the arthropods were combed from the animals and counted.
# (§2) The compounds listed below were formulated and tested as described in Biological Example 1, again at the dosage level of active ingredient of 10 mg/kg in dogs and 20 mg/kg in cats. Results at 1 DPT (day post-treatment) are tabulated below, where the compound numbers are the same as those listed in Tables 1, 2, 4, 5, 6, 7, 8, 9, 10, 11, 12 and 13 hereinabove.
# (§3) Testing was carried out as described in Biological Example 1. […] The Huang et al compound was deemed to have insufficient activity to be tested in cats.
# [2] = system: ticks (Rhipicephalus sanguineus); assay: Control of ticks on treated dogs (Biological Examples 1-3); conditions: 10 mg/kg; for % Control 1 DPT (Fleas/Ticks): Ticks: dogs, 30 mg/mL in 1:1 dimethyl sulfoxide/corn oil, 1 day post-treatment, versus placebo group
# Procedure: as §1, §2, §3
# [3] = system: cat fleas (Ctenocephalides felis); assay: Control of cat fleas on treated cats (Biological Examples 1-3); conditions: 20 mg/kg; for % Control 1 DPT (Fleas): cats, 30 mg/mL in 1:1 dimethyl sulfoxide/corn oil, 1 day post-treatment, versus placebo group
# Procedure: as §1, §2, §3
# Emesis in treated dogs = conditions: 10 mg/kg; for % Emesis: dogs; for emesis: group of 3 dogs
# Procedure: (§4) By the term “emesis” is meant vomiting. Generally an emetic substance elicits emesis in less than 24 hours after administration, usually less than 8 hours, more usually less than 2 hours. By the term “substantially non-emetic” is meant that, generally, when a compound or composition of the invention is administered to a population of animals, more than 70% (or at least ⅔) of the animals are free of emesis. Preferably, more than 80%, most preferably more than 90%, of said population is free of emesis.
# (§5) In the animals treated with the compounds above, there was substantially no emesis after 2, 8 and 24 hours. Generally long-term control of fleas and ticks was provided in dogs. In the cats treated, there was commercially acceptable control of fleas for at least one day post treatment.
# as §2
# Emesis in treated cats = conditions: 20 mg/kg; for % Emesis: cats
# Procedure: as §4, §5, §2
Structure (SMILES),% Control 1 DPT (Fleas/Ticks): Fleas [1],% Control 1 DPT (Fleas/Ticks): Ticks [2],% Control 1 DPT (Fleas) [3],% Emesis (Emesis in treated dogs),% Emesis (Emesis in treated cats),other results
CN(C(=O)C1CCCO1)c1c([S+]([O-])C(F)(F)F)c(C#N)nn1-c1c(Cl)cc(C(F)(F)F)cc1Cl (mixture of isomers) [Compound 1-9],100/100%,100/100%,100%,0%,0%,
CCOC(C)C(=O)N(C)c1c([S+]([O-])C(F)(F)F)c(C#N)nn1-c1c(Cl)cc(C(F)(F)F)cc1Cl (mixture of isomers) [Compound 122-1],100%,95%,,0%,,
CN(C(=O)C1CCCO1)c1c(SC(F)(F)F)c(C#N)nn1-c1c(Cl)cc(C(F)(F)F)cc1Cl (racemic) [Compound 1-7],100%,97%,100%,0%,25%,
CN(C(=O)C1CCCO1)c1c(S(=O)(=O)C(F)(F)F)c(C#N)nn1-c1c(Cl)cc(C(F)(F)F)cc1Cl (racemic) [Compound 1-11],100/100%,100/100%,98%,0%,0%,
CCOCC(=O)N(C)c1c([S+]([O-])C(F)(F)F)c(C#N)nn1-c1c(Cl)cc(C(F)(F)F)cc1Cl (racemic) [Compound 3-3],100%,98%,100%,0%,0%,
N#Cc1nn(-c2c(Cl)cc(C(F)(F)F)cc2Cl)c(N(C(=O)C2CCCO2)C2CC2)c1S(=O)(=O)C(F)(F)F (racemic) [Compound 6-11],100%,98%,98%,0%,0%,
N#Cc1nn(-c2c(Cl)cc(C(F)(F)F)cc2Cl)c(N(CC2CC2)C(=O)C2CCCO2)c1S(=O)(=O)C(F)(F)F (racemic) [Compound 7-11],100/100%,100/100%,100%,0%,0%,
CCOC(C)C(=O)N(C)c1c(SC(F)(F)F)c(C#N)nn1-c1c(Cl)cc(C(F)(F)F)cc1Cl (racemic) [Compound 116-1],79%,100%,100%,0%,0%,
CN(C(=O)C1CCCCO1)c1c(SC(F)(F)F)c(C#N)nn1-c1c(Cl)cc(C(F)(F)F)cc1Cl (racemic) [Compound 121-1],,,100%,,0%,
CN(C(=O)C1CCCO1)c1c(SC(F)(F)F)c(C#N)nn1-c1c(Cl)cc(C(F)(F)F)cc1Cl [(R)1-7],,,100%,,0%,
CN(C(=O)C1CCCO1)c1c(SC(F)(F)F)c(C#N)nn1-c1c(Cl)cc(C(F)(F)F)cc1Cl [(S)1-7],,,99%,,0%,
CC(=O)N(C)c1c(SC(F)(F)F)c(C#N)nn1-c1c(Cl)cc(C(F)(F)F)cc1Cl [Compound 1-1],91%,82%,99%,0%,0%,
CC(=O)N(C)c1c(S(=O)(=O)C(F)(F)F)c(C#N)nn1-c1c(Cl)cc(C(F)(F)F)cc1Cl [Compound 1-5],98%,84%,0%,0%,33%,
"COCC(=O)N(C)c1c(SC(F)(F)F)c(C#N)nn1-c1c(Cl)cc(C(F)(F)F)cc1Cl [Compound 2-1, 1-(2,6-dichloro-4-trifluoromethylphenyl)-3-cyano-4-trifluoromethylthio-5-(N-methyl)methoxyacetamidopyrazole]",100/100%,100/100%,100%,0%,0%,"control of fleas at 30 DPT ([1]; group of 3 dogs, 30 DPT): 93%; control of ticks at 30 DPT ([2]; group of 3 dogs, 30 DPT): 100%; control of fleas for at least a one month period ([3]; group of 4 cats, at least one month): 100%; emesis (Emesis in treated dogs): no emesis (0/3); vomiting (Emesis in treated cats; group of 4 cats): no vomiting"
COCC(=O)N(C)c1c([S+]([O-])C(F)(F)F)c(C#N)nn1-c1c(Cl)cc(C(F)(F)F)cc1Cl (stereo not drawn) [Compound 2-3],100%,99%,100%,33%,0%,
COCC(=O)N(C)c1c(S(=O)(=O)C(F)(F)F)c(C#N)nn1-c1c(Cl)cc(C(F)(F)F)cc1Cl [Compound 2-5],100%,95%,100%,33%,0%,
CCOCC(=O)N(C)c1c(SC(F)(F)F)c(C#N)nn1-c1c(Cl)cc(C(F)(F)F)cc1Cl [Compound 3-1],100%,96%,100%,0%,0%,
CCOCC(=O)N(C)c1c(S(=O)(=O)C(F)(F)F)c(C#N)nn1-c1c(Cl)cc(C(F)(F)F)cc1Cl [Compound 3-5],100/100%,100/100%,100%,33%,0%,
CC(C)N(C(=O)C1CCCO1)c1c(SC(F)(F)F)c(C#N)nn1-c1c(Cl)cc(C(F)(F)F)cc1Cl (stereo not drawn) [Compound 3-7],100/100%,100/100%,100%,0%,0%,
N#Cc1nn(-c2c(Cl)cc(C(F)(F)F)cc2Cl)c(N(CC2CC2)C(=O)C2CCCO2)c1SC(F)(F)F (stereo not drawn) [Compound 7-7],29%,66%,,0%,,
CCOCC(=O)N(CC1CC1)c1c(S(=O)(=O)C(F)(F)F)c(C#N)nn1-c1c(Cl)cc(C(F)(F)F)cc1Cl [Compound 28-5],100%,74%,,0%,,
COCCC(=O)N(C)c1c(SC(F)(F)F)c(C#N)nn1-c1c(Cl)cc(C(F)(F)F)cc1Cl [Compound 37-1],,,76%,,0%,
CCOCCC(=O)N(C)c1c(SC(F)(F)F)c(C#N)nn1-c1c(Cl)cc(C(F)(F)F)cc1Cl [Compound 38-1],,,87%,,0%,
CCCOC(=O)N(CCC)c1c(SC(F)(F)F)c(C#N)nn1-c1c(Cl)cc(C(F)(F)F)cc1Cl [Compound 78-1],96%,94%,,0%,,
CN(C(=O)C1CC1)c1c(SC(F)(F)F)c(C#N)nn1-c1c(Cl)cc(C(F)(F)F)cc1Cl [Compound 117-1],,,45%,,0%,
CCOC(C)(C)C(=O)N(C)c1c(SC(F)(F)F)c(C#N)nn1-c1c(Cl)cc(C(F)(F)F)cc1Cl [Compound 119-1],,,99%,,0%,
CCCC(=O)N(C)c1c(SC(F)(F)F)c(C#N)nn1-c1c(Cl)cc(C(F)(F)F)cc1Cl [Compound 124-1],,,92%,,0%,
N#Cc1nn(-c2c(Cl)cc(C(F)(F)F)cc2Cl)c(N=CNCC(F)(F)F)c1SC(F)(F)F [Compound 211-1],99%,51%,,0%,,
N#Cc1nn(-c2c(Cl)cc(C(F)(F)F)cc2Cl)c(N=CNCc2ccccc2)c1SC(F)(F)F [Compound 224],38%,6%,,0%,,
"COCC(=O)Nc1c(SC(F)(F)F)c(C#N)nn1-c1c(Cl)cc(C(F)(F)F)cc1Cl [Huang et al compound, 1-(2,6-dichloro-4-trifluoromethylphenyl)-3-cyano-4-trifluoromethylthio-5-(methoxyacetamido)pyrazole, reference compound]",,,,,,"control of fleas after 9 DPT ([1]; group of 3 dogs, 9 DPT): < 50%; control of ticks after 9 DPT ([2]; group of 3 dogs, 9 DPT): < 50%; emesis (Emesis in treated dogs): no emesis (0/3)"
